SMILES strings stand for the structures.

By IC50 is commonly meant the concentration needed to halve the response being measured. Read a low IC50 as greater potency.

One data set relates to C57BL6 mice. The settings on record: relative to wortmannin as 1.0; for Liver toxicity relative to wortmannic: mean percent increase in serum ALT and AST at the MTD or highest dose tested; for Lymphocyte toxicity relative to wortmannin: percent decrease in lymphocyte counts at the MTD or highest dose tested. An excerpt:
(§1) Highlighted are the compounds being made for antitumor testing.

Data set [1] deals with phosphatidylinositol-3-kinase. Nature of the data set: PI-3 kinase inhibition. The class given is biochemical.
Source text: as §1

Consider `COC[C@H]1OC(=O)/C(=C/SCc2ccccc2)C2=C(O)C(=O)C3=C([C@H](OC(C)=O)C[C@]4(C)C(=O)CC[C@@H]34)[C@]21C` [DJM2-170], for which, in the data set on C57BL6 mice, the “Liver toxicity relative to wortmannic” value was 1.7 and the “Lymphocyte toxicity relative to wortmannin” value amounted to 1.1.

For `COC[C@H]1OC(=O)/C(=C/NC(C)C(=O)O)C2=C(O)C(=O)C3=C([C@H](OC(C)=O)C[C@]4(C)C(=O)CC[C@@H]34)[C@]21C` (stereo partly drawn) [DJM2-177], in the data set with C57BL6 mice, the “Liver toxicity relative to wortmannic” value worked out at 0.2 and the “Lymphocyte toxicity relative to wortmannin” value is reported as 2.0.

As for `COC[C@H]1OC(=O)c2coc3c2[C@@]1(C)C1=C(C3=O)[C@@H]2CCC(=O)[C@@]2(C)C[C@H]1OC(C)=O` [wortmannin], the midpoint of inhibition in data set [1], the IC50, lay at 300 pM.

`COC[C@H]1OC(=O)/C(=C/NCC(N)=O)C2=C(O)C(=O)C3=C([C@H](OC(C)=O)C[C@]4(C)C(=O)CC[C@@H]34)[C@]21C` [DJM2-190]: the “Lymphocyte toxicity relative to wortmannin” value in the data set with C57BL6 mice is 0.6.

These data come from patent publication EP1914230B1 (The Arizona Board of Regents on behalf of the University of …, priority 2001, dated 2003).
